Our source for the IC50 and Activity values is ChEMBL document CHEMBL3045636, “Synthesis, characterization, in vitro anticancer activity, and docking of Schiff bases of 4-amino-1,2-naphthoquinone” (Med Chem Res, 2013).

Molecules are shown by their SMILES. Calls of active or inactive are those of the source. No cut-off for these calls is given here.

Common to all, as to assay type: functional, cell-based
In assay [1] the test system is MCF7. Kind of assay: Cytotoxicity against Homo sapiens (human) MCF7 cells assessed as reduction of cell survival after 48 hr by MTT assay. The settings on record: MCF7, 48 h. On the technique in general: Tetrazolium assays rely on reduction of a dye to a coloured formazan, in cell work by metabolically active cells.
Assay [2] relates to MG-63. Kind of assay: Cytotoxicity against Homo sapiens (human) MG63 cells assessed as reduction of cell survival after 48 hr by MTT assay. The note with it: MG-63, 48 h.
In assay [3] the test system is HepG2. Kind of assay: Cytotoxicity against Homo sapiens (human) HepG2 cells assessed as reduction of cell survival after 48 hr by MTT assay. The note with it: HepG2, 48 h.
Assay [4] relates to MG-63. Kind of assay: Cytotoxicity against Homo sapiens (human) MG63 cells assessed as morphological changes at 10 uM after 48 hr by phase contrast microscopic analysis relative to untreated control.
Assay [5] deals with MCF7. Kind of assay: Cytotoxicity against Homo sapiens (human) MCF7 cells assessed as morphological changes at 10 uM after 48 hr by phase contrast microscopic analysis relative to untreated control.
Assay [6] deals with HepG2. Kind of assay: Cytotoxicity against Homo sapiens (human) HepG2 cells assessed as morphological changes at 10 uM after 48 hr by phase contrast microscopic analysis relative to untreated control.

By IC50 is commonly meant the concentration that inhibits the measured activity by half.

`O=C1C=C(/N=C\c2c[nH]c3ccccc23)c2ccccc2C1=O`: the concentration for half-maximal inhibition (IC50) is 11.3 µM in the assay on MCF7 [1], 13.8 µM in the assay with MG-63 [2] and 10.1 µM in the assay on HepG2 [3].
Taken in the same sequence, the figures for `O=C1C=C(N=C2CCCC2)c2ccccc2C1=O` were 9.64 µM, 11.9 µM and 7.77 µM.
On the same counts, the results for `O=C1C=C(/N=C\C=C\c2ccccc2)c2ccccc2C1=O` are 12.9 µM, 14.8 µM and 10.6 µM.
Taken in the same sequence, the figures for `O=C1C=CC(=O)c2ccccc21` [NAPHTHOQUINONE] were 16.9 µM, > 25 µM and 15.9 µM.
With `CN(C)c1ccc(/C=N\C2=CC(=O)C(=O)c3ccccc32)cc1`, the results for the IC50 in the assay with MCF7 [1], with MG-63 [2] and with HepG2 [3] were 10.6 µM, 12.9 µM and 7.72 µM, respectively.
On the same counts, the results for `O=C1C=C(/N=C\c2ccccc2Cl)c2ccccc2C1=O` are 14.3 µM, 17.1 µM and 12.1 µM.
On the same counts, the results for `Cc1ccc(/C=N\C2=CC(=O)C(=O)c3ccccc32)cc1` are 12.6 µM, 15.1 µM and 10.4 µM.
Taken in the same sequence, the figures for `O=C1C=C(/N=C\c2cccc(Br)c2)c2ccccc2C1=O` were 14.6 µM, 17.3 µM and 12.2 µM.
For the compound `NC1=CC(=O)C(=O)c2ccccc21` [4-AMINO-[1,2]NAPHTHOQUINONE], the half-maximal inhibitory concentration (IC50) in the assay on MCF7 [1] was found to be 14.8 µM; in the assay on MG-63 [2], 24.6 µM; in the assay with HepG2 [3] it was 15.7 µM.
As for `O=C1C=C(/N=C\c2ccccc2)c2ccccc2C1=O`, the IC50 in the assay on MCF7 [1] amounted to 13.8 µM; with MG-63 [2], 16.2 µM; with HepG2 [3] it was 11.5 µM.
Regarding `O=C1C=C(/N=C\c2ccccc2O)c2ccccc2C1=O`, the figures for the IC50 with MCF7 [1], with MG-63 [2] and in the assay on HepG2 [3] were 13.2 µM, 16.1 µM and 11 µM, respectively.
Taken in the same sequence, the figures for `COc1cc(/C=N\C2=CC(=O)C(=O)c3ccccc32)ccc1O` were 8.24 µM, 9.98 µM and 6.37 µM.
Taken in the same sequence, the figures for `COc1cccc2c1C(=O)c1c(O)c3c(c(O)c1C2=O)C[C@@](O)(C(=O)CO)C[C@@H]3O[C@H]1C[C@H](N)[C@H](O)[C@H](C)O1` [DOXORUBICIN] were 2.67 µM, 3.17 µM and 1.69 µM.
With `COc1ccc(/C=N\C2=CC(=O)C(=O)c3ccccc32)cc1`, the IC50 came to 11.2 µM in the assay with MCF7 [1], 12.7 µM in the assay with MG-63 [2] and 9.03 µM in the assay on HepG2 [3].
On the same counts, the results for `O=C1C=C(N=C2CCCCC2)c2ccccc2C1=O` are 9.3 µM, 11.5 µM and 7.37 µM.
On the same counts, the results for `O=C1C=C(/N=C\c2ccc(Cl)cc2Cl)c2ccccc2C1=O` are 14.7 µM, 24.3 µM and 15.7 µM.
On the same counts, the results for `O=C1C=C(/N=C\c2ccccc2[N+](=O)[O-])c2ccccc2C1=O` are 14.4 µM, 17 µM and 11.8 µM.
With `COc1cc(/C=N\C2=CC(=O)C(=O)c3ccccc32)cc(OC)c1OC`, the outcome in the assay with MG-63 [4], with MCF7 [5] and in the assay with HepG2 [6] was Active. Besides, the IC50 with MCF7 [1] worked out at 7.65 µM; in the assay on MG-63 [2], 9.69 µM; in the assay on HepG2 [3] it was 5.91 µM.
Regarding `O=C1C=C(/N=C\c2ccc([N+](=O)[O-])cc2)c2ccccc2C1=O`, the IC50 is 14.7 µM in the assay with MCF7 [1], 25 µM in the assay with MG-63 [2] and 15.6 µM in the assay with HepG2 [3].
Taken in the same sequence, the figures for `COc1ccc(/C=N\C2=CC(=O)C(=O)c3ccccc32)cc1OC` were 10.9 µM, 13.3 µM and 9.15 µM.
Taken in the same sequence, the figures for `O=C1C=C(/N=C\c2ccc(O)cc2)c2ccccc2C1=O` were 11.1 µM, 13.6 µM and 8.92 µM.
